These results are taken from patent US9440950B2, “Arginine methyltransferase inhibitors and uses thereof” (Epizyme, Inc., priority 2013, dated 2016).

The test has as its target T1, human PRMT8 (Homo sapiens, UniProt Q9NR22).
T1 construct: Full-length human PRMT8 (NM_019854.4) isoform 1 transcript clone; made in house
The test can be described thus: PRMT8 Biochemical Assay. Conditions: peptide substrate, 3H-SAM Flashplate assay. The text has this: S-adenosylmethionine (SAM), S-adenosylhomocysteine (SAH), bicine, Tween20, dimethylsulfoxide (DMSO), bovine skin gelatin (BSG), isopropyl-P3-D-thiogalactopyranoside (IPTG), and Tris(2-carboxyethyl)phosphine hydrochloride solution (TCEP) were purchased from Sigma-Aldrich at the highest level of purity possible. ^3H-SAM was purchase from American Radiolabeled Chemicals with a specific activity of 80 Ci/mmol. 384-well streptavidin Flashplates were purchased from PerkinElmer.
Peptide representative of human histone H4 residues 31-45 was synthesized with an N-terminal linker-affinity tag motif and a C-terminal amide cap by 21st Century Biochemicals. The peptide was purified by high-performance liquid chromatography (HPLC) to greater than 95% purity and confirmed by liquid chromatography mass spectrometry (LC-MS). The sequence was Biot-Ahx-[…]-amide (SEQ ID NO.:8).
The resulting construct encodes an N-terminal GST tag and a thrombin cleavage sequence ([…] […] […] […]) (SEQ ID NO.:9) fused directly to Met 1 of PRMT8.
E. coli (BL21(DE3) Gold, Stratagene) made competent by the CaCl2 method were transformed with the PRMT8 construct and ampicillin selection. Protein over-expression was accomplished by growing the PRMT8 expressing E. coli clone and inducing expression with 0.3 mM IPTG at 16° C. The culture was grown for 12 hours, harvested by centrifugation, and stored at −80° C. for purification.
The column was washed with 50 mM phosphate buffer, 100 mM NaCl, 5% glycerol, 5 mM β-mercaptoethanol, pH 7.8 and PRMT8 was eluted by 100 mM phosphate in the same buffer. Protein was concentrated and buffer was exchanged to 50 mM Tris, 300 mM NaCl, 10% glycerol, 5 mM β-mercaptoethanol, pH 7.8 by ultrafiltration. The purity of recovered protein was 89%.
General Procedure for PRMT8 Enzyme Assays on Peptide Substrates.
The assays were all performed in a buffer consisting of 20 mM Bicine (pH=7.6), 1 mM TCEP, 0.005% BSG, and 0.002% Tween 20, prepared on the day of use. Compounds in 100% DMSO (1 ul) were spotted into a polypropylene 384-well V-bottom plates (Greiner) using a Platemate Plus outfitted with a 384-channel head (Thermo Scientific). DMSO (1 ul) was added to Columns 11, 12, 23, 24, rows A-H for the maximum signal control and 1 ul of SAH, a known product and inhibitor of PRMT8, was added to columns 11, 12, 23, 24, rows I-P for the minimum signal control. A cocktail (40 ul) containing the PRMT8 enzyme was added by Multidrop Combi (Thermo-Fisher). The compounds were allowed to incubate with PRMT8 for 30 min at room temperature, then a cocktail (10 ul) containing ^3H-SAM and peptide was added to initiate the reaction (final volume=51 ul). The final concentrations of the components were as follows: PRMT8 was 1.5 nM, ^3H-SAM was 50 nM, non-radiolabeled SAM was 550 nM, peptide was 150 nM, SAH in the minimum signal control wells was 1 mM, and the DMSO concentration was 2%. The assays were stopped by the addition of non-radiolabeled SAM (10 ul) to a final concentration of 400 uM, which dilutes the ^3H-SAM to a level where its incorporation into the peptide substrate is no longer detectable. 50 ul of the reaction in the 384-well polypropylene plate was then transferred to a 384-well Flashplate and the biotinylated peptides were allowed to bind to the streptavidin surface for at least 1 hour before being washed once with 0.1% Tween20 in a Biotek ELx405 plate washer. The plates were then read in a PerkinElmer TopCount plate reader to measure the quantity of ^3H-labeled peptide bound to the Flashplate surface, measured as disintegrations per minute (dpm) or alternatively, referred to as counts per minute (cpm).
Where dpm=disintegrations per minute, cmpd=signal in assay well, and min and max are the respective minimum and maximum signal controls.
Where top and bottom are the normally allowed to float, but may be fixed at 100 or 0 respectively in a 3-parameter fit. […]

T1 sequence (Q9NR22 whole entry, canonical isoform): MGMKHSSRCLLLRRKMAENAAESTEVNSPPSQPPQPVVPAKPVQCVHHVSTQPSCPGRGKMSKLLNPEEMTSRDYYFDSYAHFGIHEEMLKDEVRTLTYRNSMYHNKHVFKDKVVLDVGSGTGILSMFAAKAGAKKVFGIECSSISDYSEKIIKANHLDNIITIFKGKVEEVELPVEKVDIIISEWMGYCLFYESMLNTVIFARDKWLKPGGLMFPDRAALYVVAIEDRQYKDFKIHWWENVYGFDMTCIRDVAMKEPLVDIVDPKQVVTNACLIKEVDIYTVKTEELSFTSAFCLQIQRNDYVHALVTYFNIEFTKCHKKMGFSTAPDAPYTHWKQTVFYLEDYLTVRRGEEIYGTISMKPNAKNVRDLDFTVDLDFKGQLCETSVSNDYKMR

For `COc1ncccc1-c1n[nH]cc1CN(C)CCN` [Compound 15], the IC50 was in the range of 1.01 to 3 µM. With `CN(CCN)Cc1c[nH]nc1-c1cncc(S(C)(=O)=O)c1` [Compound 4], the IC50 was no less than 10 µM. `COc1cc(-c2n[nH]cc2CN(C)CCN)ccn1` [Compound 11]: the IC50 was in the range of 1.01 to 3 µM. For `Cc1cncc(-c2n[nH]cc2CN(C)CCN)c1` [Compound 6] the value was 1.01 to 3 µM; for `CN(CCN)Cc1c[nH]nc1-c1cnccc1C(F)(F)F` [Compound 29], no less than 10 µM. In turn, `COc1ccncc1-c1n[nH]cc1CN(C)CCN` [Compound 16] yielded an IC50 of 3.01 to 10 µM.

The compound `CN(CCN)Cc1c[nH]nc1-c1ccccn1` [Compound 27] registered a half-maximal inhibitory concentration (IC50) of no less than 10 µM. On to `CN(CCN)Cc1c[nH]nc1-c1cncc(C#N)c1` [Compound 18], for which the half-inhibitory concentration (IC50) lay in the range of 3.01 to 10 µM. Consider `CN(CCN)Cc1c[nH]nc1-c1cncc(F)c1` [Compound 7], for which the IC50 lay within 1.01 to 3 µM. The compound `COc1ncc(Cl)cc1-c1n[nH]cc1CN(C)CCN` [Compound 14] had an IC50 of 3.01 to 10 µM. For `CC(C)Oc1ccc(-c2n[nH]cc2CN(C)CCN)cn1` [Compound 22] the value was 0.101 to 1 µM; for `CN(CCN)Cc1c[nH]nc1-c1ccc(C(F)(F)F)nc1` [Compound 13, N^1-methyl-N^1-((3-(6-(trifluoromethyl)pyridin-3-yl)-1H-pyrazol-4-yl)methyl)ethane-1,2-diamine], 0.101 to 1 µM; for `Cc1cc(-c2n[nH]cc2CN(C)CCN)cnc1Cl` [Compound 10], 0.101 to 1 µM. The compound `Cc1ccncc1-c1n[nH]cc1CN(C)CCN` [Compound 17] returned an IC50 of 3.01 to 10 µM. To `CC(C)CNc1ccc(-c2n[nH]cc2CN(C)CCN)cn1` [Compound 26] belongs 1.01 to 3 µM; to `CN(CCN)Cc1c[nH]nc1-c1ccc(N2CCOCC2)nc1` [Compound 20], 0.101 to 1 µM; to `CN(CCN)Cc1c[nH]nc1-c1cncc(Cl)c1` [Compound 19], 1.01 to 3 µM. To `CN(CCN)Cc1c[nH]nc1-c1ccc(NCc2ccccc2)nc1` [Compound 25] belongs 1.01 to 3 µM. `COc1ccc(-c2n[nH]cc2CN(C)CCN)cn1` [Compound 5] showed a concentration for half-maximal inhibition (IC50) of 1.01 to 3 µM. In turn, `CNCCN(C)Cc1c[nH]nc1-c1cccnc1` [Compound 1] had an IC50 of 1.01 to 3 µM. On to `CNCCN(C)Cc1c[nH]nc1-c1ccc(N)nc1` [Compound 3], for which the IC50 was in the range of 3.01 to 10 µM. Regarding `CN(CCN)Cc1c[nH]nc1-c1cccnc1` [Compound 8], the IC50 was in the range of 1.01 to 3 µM. For `COc1cc(-c2n[nH]cc2CN(C)CCN)c(Cl)cn1` [Compound 12] the value was 3.01 to 10 µM; for `CN(CCN)Cc1c[nH]nc1-c1ccc(C#N)nc1` [Compound 28, 5-(4-(((2-aminoethyl)(methyl)amino)methyl)-1H-pyrazol-3-yl)picolinonitrile], 0.101 to 1 µM; for `CNCCN(C)Cc1c[nH]nc1-c1ccc(O)nc1` [Compound 2], no less than 10 µM. `CN(CCN)Cc1c[nH]nc1-c1ccncc1` [Compound 9] showed an IC50 of 0.101 to 1 µM.

In turn, `CC(C)CN(C)c1ccc(-c2n[nH]cc2CN(C)CCN)cn1` [Compound 21] came in with an IC50 of 1.01 to 3 µM. To `CN(CCN)Cc1c[nH]nc1-c1ccc(N(C)Cc2ccccc2)nc1` [Compound 23] belongs 0.101 to 1 µM. For `CCN(CC)c1ccc(-c2n[nH]cc2CN(C)CCN)cn1` [Compound 24] the value was 1.01 to 3 µM.

Usually IC50 stands for the concentration at which inhibition is half-maximal. Read a low IC50 as higher potency.
